According to article PMC3230693 (Nature structural & molecular biology, 2011):

Assays:
[1] = target: L858R tEGFR (Homo sapiens, UniProt P00533, L858R)
[2] = target: WT tEGFR (human EGFR aa 25–1022) (Homo sapiens, UniProt P00533); experiment: Radiometric kinase inhibition assay, WT tEGFR; assay type: biochemical
[3] = target: Δ746–750 tEGFR (Homo sapiens, UniProt P00533, DEL746-750)
[4] = target: L858R I706Q tEGFR (human)
[5] = test system: EGFR catalytic domain; conditions: cited from earlier work
[6] = test system: HEK293 GnTi− cells; experiment: Expression of mutant tEGFRs in transfected cells; assay type: cell-based, human; conditions: 50 nM in culture medium; western blot
[7] = target: Δ(746–750) I706Q tEGFR (human)

## Nc1ncnc2c1ncn2[C@@H]1O[C@H](COP(=O)(O)OP(=O)(O)NP(=O)(O)O)[C@@H](O)[C@H]1O [AMP-PNP]
[1]; L858R tEGFR–EGF, 10 µM ATP, range stated for WT and mutant tEGFRs
  IC50: 80 to 200 µM
[1]; L858R vs WT tEGFR, range stated for both mutants
  Ki fold higher compared with WT: 5–8 fold
[2]; WT tEGFR–EGF, 10 µM ATP, range stated for WT and mutant tEGFRs
  IC50: 80 to 200 µM
[2]; read-out: Ki (deduced from IC50, ATP concentration and ATP Kmapp), WT tEGFR–EGF
  Ki: 21 ± 5 µM
[3]; Δ746–750 vs WT tEGFR, range stated for both mutants
  Ki fold higher compared with WT: 5–8 fold
[3]; Δ(746–750) tEGFR–EGF, 10 µM ATP, range stated for WT and mutant tEGFRs
  IC50: 80 to 200 µM

## L858R I706Q tEGFR (receptor)
[4]
  kinase rate in the presence of EGF, against the single mutant L858R tEGFR: 30 fold lower

## Segment 1 of MIG6: MIG6 segment 1 (30mer, residues 334–364) peptide made by solid-phase peptide synthesis (SPKSLPSYLNGVMPPTQSFAPDPKYVSSKAL)
[1]; L858R tEGFR–EGF, up to 100 µM
  inhibition by MIG6 segment 1: essentially resistant to inhibition
[2]; EGF–bound WT tEGFR, phosphorylation of biotinylated substrate peptide
  IC50: 100 µM
[5]
  affinity, fold weaker relative to segment 1+2: ~ 100 fold
[3]; Δ(746–750) tEGFR–EGF, up to 100 µM
  inhibition by MIG6 segment 1: essentially resistant to inhibition

## C#Cc1cccc(Nc2ncnc3cc(OCCOC)c(OCCOC)cc23)c1 [erlotinib]
[6]
  expression of L858R and Δ746–750 tEGFRs: enhanced expression

## Δ(746–750) I706Q tEGFR (receptor)
[7]
  kinase rate of the EGF–bound form, against Δ746–750 tEGFR: 5 fold lower
